From paper PMC9636034 (Current Research in Food Science, 2022)

Target: α-glucosidase from yeast (Saccharomyces cerevisiae, UniProt P53341)
Test: Inhibition assay against α-glucosidase from yeast
Type: biochemical

Sequence of α-glucosidase from yeast (P53341 whole entry): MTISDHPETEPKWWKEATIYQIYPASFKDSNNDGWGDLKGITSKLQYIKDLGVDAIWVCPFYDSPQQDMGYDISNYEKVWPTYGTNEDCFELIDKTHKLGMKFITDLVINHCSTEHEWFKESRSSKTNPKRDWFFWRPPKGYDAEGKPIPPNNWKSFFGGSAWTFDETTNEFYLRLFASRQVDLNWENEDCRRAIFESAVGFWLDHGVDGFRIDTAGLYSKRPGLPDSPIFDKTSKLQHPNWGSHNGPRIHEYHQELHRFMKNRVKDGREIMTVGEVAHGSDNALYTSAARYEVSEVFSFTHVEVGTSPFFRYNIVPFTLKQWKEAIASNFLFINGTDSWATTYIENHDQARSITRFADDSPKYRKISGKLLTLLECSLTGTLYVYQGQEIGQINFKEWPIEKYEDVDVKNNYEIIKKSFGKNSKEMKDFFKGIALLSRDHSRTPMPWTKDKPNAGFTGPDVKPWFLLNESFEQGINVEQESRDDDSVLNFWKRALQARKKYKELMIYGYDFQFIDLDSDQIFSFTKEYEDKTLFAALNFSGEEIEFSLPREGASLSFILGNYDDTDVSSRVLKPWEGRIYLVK

Row | Compound | IC50
1 | CC(=O)[C@@H]1COC(=O)[C@H]1C [Compound 2, (3S, 4S)-4-acetyl-3-methyldihydrofuran-2 (3H)-one] | 193 ± 13.1 µM
2 | CC1=C(C)C(C)(O)OC1=O (centres unmarked) [Compound 3, 2-methyl-2-hydroxy-3,4-dimethyl-5-oxo-2,5-dihydrofuran] | > 250 µM
